The source of these data is PubChem BioAssay AID463074 (Broad Institute, 2010).

Molecules are shown by their SMILES. Activity calls are given as the source filed them.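 How the source made its calls: active means AC50 no more than tenfold above the top dose tested, or full inhibition at every dose with a flat fit (cut at about 19 µM in these data); inconclusive means flat curve fit with inhibition between 30% and 70%, or poor fit; inactive means AC50 more than tenfold above the top dose tested.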

For this test, the system named is HMLE_sh_eGFP viability, CellTiter-Glo luminescence, 72 h. Put plainly: viability loss of HMLE_sh_eGFP cells – cell-based, luminescence, counter-screen for HMLE_sh_ECad selective toxicity project, dose response (AID 463074;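 further: counterscreen control line to flag general toxicity for the HMLE_sh_ECad screen; potency for loss of viability as luminescence drops below DMSO wells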). (In general: A counterscreen serves to expose hits that act by an unwanted route or on another target.)
In the case of `O=C(Nc1ccc(Nc2ccccc2)cc1)c1ccccc1`, the AC50 (in general, the concentration at which the activity in the assay is half-maximal) is 13.5 µM. On to `Cn1c(O)c(/C=N/Nc2ccccc2)c(=O)n(C)c1=O`, for which the AC50 is 4.08 µM. Take `CC(C)(C)c1ccc(Cn2nnc3c(=O)[nH]c(C4CCCN(C(=O)c5cccs5)C4)nc32)cc1` (stereo not given): the AC50 was 14.6 µM.

Consider `CCOc1cc(CNCCO)cc(Br)c1OCc1ccc(Cl)cc1Cl`, for which the half-maximal activity concentration (AC50) was 6.68 µM. For `COc1ccccc1/C=C1\S/C(=N/NC(=O)c2cccc(Br)c2)NC1=O` the value was 8.09 µM. Regarding `COc1cccc(NP(=O)(Oc2ccc(Cl)cc2)Oc2ccc(Cl)cc2)c1`, the AC50 was 5.83 µM. Regarding `CC(C)N(CCC(=O)c1ccc2ccccc2c1)Cc1ccccc1`, the AC50 was 9.86 µM. For `COc1ccc(OC)c(NC(=O)NNC(=O)COc2ccc(-c3ccccc3)cc2)c1`, the AC50 was > 19.5 µM (inactive). In the case of `Cc1[nH]nc2c1C(c1ccc(-c3ccc(Cl)cc3)o1)C(C#N)=C(N)O2` (stereo not given), the half-maximal activity concentration (AC50) was 7.25 µM. `O=C(N/N=C/c1ccc(Cl)c([N+](=O)[O-])c1)c1cc(-c2ccccc2)nc2ccccc12`: the half-maximal activity concentration (AC50) was 4.52 µM.

As for `Cc1nn(Cc2ccc(Cl)cc2)c(C)c1NC(=O)c1cc(-c2ccc3c(c2)OCO3)on1`, the AC50 is 1.17 µM. As to `Clc1cccc(CN2CCc3c([nH]c4ccccc34)C2)c1Cl`, the AC50 is 6.15 µM.

As to `O=C(/C=C/c1c(F)cccc1Cl)c1ccc(O)cc1`, the AC50 is 7.97 µM. For the compound `Cc1ccc(C)c(OCCCCN2CCNCC2)c1C`, the AC50 was 6.15 µM.

Regarding `N#C/C(=C\C=C\c1ccccc1[N+](=O)[O-])C(=O)NC1CCCCC1`, the AC50 was 6.88 µM. For `CCCCCCCCOC(=O)c1c(CSC(=N)N)n(C)c2cc(Br)c(OC(C)=O)cc12` the value was 3.72 µM. Turning to `Cc1snc(S(=O)(=O)/C(C#N)=N/Nc2ccc(C(F)(F)F)cc2)c1C#N`, the AC50 was 19.7 µM. For `CCCCc1ccc(N=N/C(C(=O)Nc2ccc(NC(C)=O)cc2OC)=C(/C)O)cc1`, the AC50 is 17.7 µM.

As for `CN1CCN(c2ccc(S(=O)(=O)N3CCCCC3)cc2NC(=O)/C=C/c2ccc(Cl)c([N+](=O)[O-])c2)CC1`, the concentration at half-maximal activity (AC50) is 4.42 µM. Take `O=C1C(Cl)=C(Nc2ccccc2)C(=O)c2ccccc21`: the AC50 was 2.19 µM. In the case of `CC(C)c1cc(-c2cc(-c3ccccc3)on2)nc(NC2CCCC2)n1`, the AC50 was 7.45 µM.

As for `S=c1[nH]nc(COc2ccccc2)n1/N=C/C(Cl)=C/c1ccccc1`, the half-maximal activity concentration (AC50) was 3.55 µM. With `O=C(NCc1cccnc1)/C(=C\c1ccc(-c2cccc(Cl)c2)o1)S(=O)(=O)c1ccccc1`, the concentration at half-maximal activity (AC50) is 3.13 µM. With `Oc1ccc(C[C@@H]2CNC(=S)N2CCCCC2CCCCC2)cc1`, the concentration at half-maximal activity (AC50) was 6.13 µM. `COc1ccc(-c2cc(C(=O)N3CC4(C)CC3CC(C)(C)C4)no2)cc1OC` (stereo not given): the concentration at half-maximal activity (AC50) was 10.6 µM.

`CC(=O)c1ccc(N2CCC(c3cc(-c4ccc(Cl)cc4)n[nH]3)CC2)c([N+](=O)[O-])c1`: the AC50 was 3.62 µM. Take `COc1ccc(OC)c(-c2nnc3n2N=C(c2ccc(OC(F)F)c(OCC4CC4)c2)CS3)c1`: the AC50 is 4.26 µM. For the compound `COc1cc(/C=C/c2[nH]c(=O)[nH]c(=O)c2[N+](=O)[O-])ccc1OCCC(C)C`, the AC50 was 7.14 µM. Consider `OCCCNc1nc(-c2ccccc2)c2cc(Br)ccc2n1`, for which the AC50 is > 19.5 µM (inactive). On to `COc1ccc2sc(-c3ccc(N(C)C)cc3)c(C#Cc3cncn3C)c2c1`, for which the AC50 is 2.18 µM. Regarding `COc1ccc(-c2sc3cc(OC)c(OC)cc3c2C#CC2(O)CCCCC2)cc1`, the AC50 was 5.19 µM. As for `O=S(=O)(c1ccc(Cl)cc1)N1CCN(Cc2ccc(O)c3ncccc23)CC1`, the AC50 was 6.21 µM. With `CC1=CC(C)[C@H](/C=N/n2c(=O)[nH]c3c([nH]c4ccc(Br)cc43)c2=O)C(C)C1` (stereo not given in full), the half-maximal activity concentration (AC50) is 1.46 µM. As to `Cc1ccc(NC(=S)Nc2cccc3cnccc23)cc1C`, the AC50 was > 19.5 µM (inactive). Next, `Nc1cc(-c2ccc(OC(F)(F)F)cc2)nn1-c1ccc(Cl)c(Cl)c1`: 5.83 µM; `O=S(=O)(c1cnc(Cl)c(Br)c1)N1CCc2ccccc21`: 6.77 µM; `COc1ccc(CN(CCC(c2ccccc2)c2ccc(OC(C)C)cc2)C(=O)CCl)cc1OC` (stereo not given): 1.67 µM. Consider `COc1cccc(/C=N/NC(=O)c2[nH]c(C)c(C(=O)N/N=C/c3cccc(OC)c3O)c2C)c1O`, for which the AC50 was 4.53 µM.

As for `O=C(/C=C/c1ccc(Cl)c([N+](=O)[O-])c1)Nc1cccc(NC(=O)c2ccco2)c1`, the AC50 is 1.69 µM. Take `O=C(NCc1ccc(Cl)cc1)c1cccc(NC(=O)c2ccccc2)c1`: the AC50 was 6.79 µM. Regarding `N#Cc1ccc(Nc2nc(-c3ccc(O)cc3O)cs2)cc1C(F)(F)F`, the AC50 was 3.87 µM. On to `CC(C)C(=O)NC(c1ccccc1)c1cc([N+](=O)[O-])c2cccnc2c1O` (stereo not given), for which the AC50 was 5.91 µM. As to `CCOc1cc(/C=C2/SC(=S)N(Cc3ccccc3)C2=O)ccc1O`, the AC50 was 3.76 µM. `CN(C)/N=C/C=C1\CCC/C(=C\c2ccc(F)c(F)c2)C1=O`: the AC50 was 10.5 µM. Take `Cc1ccc(Nc2nc(N)c([N+](=O)[O-])c(NCc3ccco3)n2)cc1C`: the concentration at half-maximal activity (AC50) was 7.19 µM. Regarding `O=C(Nc1ccc(C(O)(C(F)(F)F)C(F)(F)F)cc1)c1ccc(Cl)c([N+](=O)[O-])c1`, the AC50 is 7.08 µM. For the compound `CCCCCCCCCc1nc2sc3c(c2c(=O)n1NC(=O)c1ccccc1[N+](=O)[O-])CC(C)(C)OC3`, the AC50 was 1.21 µM. Turning to `O=C1NC(c2ccc(-c3ccccc3[N+](=O)[O-])o2)C(C(=O)c2ccc(Cl)cc2)C(O)(C(F)(F)F)N1` (stereo not given), the AC50 was 13.8 µM. With `Cc1cc(O)c(C(C)C)cc1C1(c2cc(C(C)C)c(O)cc2C)OC(=O)c2ccccc21`, the AC50 is 3.23 µM. Regarding `Cc1cc(Nc2cccc(F)c2)nc(-c2ccccc2O)n1`, the AC50 is 6.41 µM. For `O=C(COc1ccccc1-c1ccccc1)N/N=C/c1cccc2ccccc12` the value was 0.608 µM; for `COC(=O)c1c(NC(=O)/C=C/c2ccc3c(c2)OCO3)sc(C)c1C`, 1.7 µM. Turning to `Cc1cccc(NC(=S)N/N=C/c2ccc([N+](=O)[O-])s2)c1`, the half-maximal activity concentration (AC50) was 6.78 µM. On to `COc1cccc(/C=C/C(=O)c2ccc(NS(=O)(=O)c3ccc(C)cc3)cc2)c1`, for which the AC50 is 3.22 µM.

Consider `COc1cc(CNC(C)(C)CO)cc(Br)c1OCc1ccc(Cl)cc1Cl`, for which the concentration at half-maximal activity (AC50) was 6.07 µM. For `Cc1ccc(CSc2nc3sc(C)c(C)c3c(=O)n2Cc2ccco2)cc1` the value was > 19.5 µM (inactive); for `CC(=O)Oc1ccc(C2=NN(c3ccccc3)C(c3ccccc3)C2)cc1` (stereo not given), 4.18 µM. With `Cc1ccc(NC(=O)Cn2c(O)c(N=NC(=O)c3cc4ccccc4cc3O)c3ccccc32)cc1`, the AC50 is 3.92 µM. `CCC(=O)Nc1nc(C)c(-c2csc(Nc3cccc(O)c3)n2)s1`: the AC50 was 0.384 µM. As to `NC(=O)c1sc(-c2ccsc2)cc1NS(=O)(=O)c1ccc(C(F)(F)F)cc1`, the concentration at half-maximal activity (AC50) was 16.1 µM. Take `CC12CCC(C/C1=N\N=C1\NC(=O)/C(=C\c3ccc(Cl)cc3)S1)C2(C)C` (stereo not given): the concentration at half-maximal activity (AC50) is 3.25 µM. Turning to `CC(C)Cn1c(O)c(/C=C2\C=NN=C2c2ccccc2)sc1=S`, the concentration at half-maximal activity (AC50) is 3.54 µM.

Turning to `CCN(CC)c1nc(SCCOC(=O)Nc2ccccc2)nc(N(CC)CC)n1`, the concentration at half-maximal activity (AC50) was 4.58 µM.

In the case of `CC(=O)N(C)c1ccc(OCC(O)Cn2c3ccc(Cl)cc3c3cc(Cl)ccc32)cc1` (stereo not given), the concentration at half-maximal activity (AC50) is 1.65 µM. As for `CC(C)(C)c1nc(N2CCN(C(=O)c3ccco3)CC2)c2nnn(Cc3ccccc3Cl)c2n1`, the half-maximal activity concentration (AC50) is 8.78 µM. For the compound `COc1ccc(C(=O)CSc2nnc(CN3CCCCC3)n2-c2ccc(Cl)cc2)cc1OC`, the concentration at half-maximal activity (AC50) was 9.46 µM. `COc1ccc(-c2sc3cc4c(cc3c2C#CC2(O)CCCCC2)OCO4)cc1`: the AC50 was 6.35 µM. Consider `C=C1[C@@H](O)[C@@H]2O[C@]3(CC[C@H](/C=C/[C@@H](C)[C@@H]4CC(C)=CC5(O[C@H](C[C@@](C)(O)C(=O)OC)CC[C@H]5O)O4)O3)CC[C@H]2O[C@@H]1[C@@H](O)C[C@H](C)[C@H]1OC2(CCCCO2)CC[C@H]1C` (stereo not given in full), for which the AC50 was < 0.16 µM. For `C=CCn1c(CNc2ccc(C)cc2)nnc1SCC(=O)N/N=C/c1ccc(O)cc1O`, the half-maximal activity concentration (AC50) is 2.97 µM. For the compound `CCOC(=O)C(C)(C)N(Cc1ccc(Cl)cc1)S(=O)(=O)c1ccc(Cl)c([N+](=O)[O-])c1`, the AC50 is 2.5 µM. For `O=C(/C=C/c1c[nH]c2ccccc12)c1cccc2ccccc12`, the AC50 was 5.3 µM. Turning to `COc1ccccc1-c1sc2cc3c(cc2c1C#Cc1cncn1C)OCO3`, the AC50 is 5.73 µM. Turning to `CC(=O)c1ccc(-c2ccc([C@H]3[C@H]4C=CC[C@@H](C)[C@@H]4C(=O)N3Cc3ccccc3)c(F)c2)cc1`, the AC50 was 6.13 µM.

Turning to `CC(C)c1cccc(C(C)C)c1OC(=O)[C@H]1OC(c2ccc(Br)cc2)=C[C@@H]1c1ccc(Br)cc1`, the AC50 was 4.64 µM. For `O=C(/C=C/c1ccc2c(c1)OCO2)NCCSCc1c(Cl)cccc1Cl` the value was 2 µM; for `Cc1cc(C)cc(NC(=O)Nc2ccc(-n3ccc(C(F)(F)F)n3)cc2)c1`, 4.95 µM. As for `Cn1nnnc1Sc1ncnc2scc(-c3ccc(Cl)cc3)c12`, the AC50 was 3.3 µM. Turning to `CCOC(=O)c1c(NC(=O)CSc2nc3ccc(C)cc3[nH]2)sc2c1CC(C)(C)NC2(C)C`, the AC50 was 6.64 µM.

As to `Cc1ccc(C)c(-c2csc(N)c2C(=O)OC(C)C)c1`, the AC50 is 8.52 µM. For `CC/C(=N\Nc1ccccc1)c1c(O)n(-c2ccccc2)c(=O)[nH]c1=O` the value was 2.16 µM; for `Cc1ccccc1N=C1SC(CC(=O)Nc2ccc3ccccc3c2)C(=O)N1Cc1ccccn1` (stereo not given), 6.02 µM. Next, `OC(CN1CCN(c2ccccn2)CC1)Cn1c2ccc(Cl)cc2c2cc(Cl)ccc21` (stereo not given): 6.78 µM.

Consider `O=C1NN(c2cccc(Br)c2)C(=O)/C1=C\c1ccccc1`, for which the AC50 was 6.97 µM. On to `CC(C)(c1ccccc1)c1ccc(OCCCN2CCNCC2)cc1`, for which the AC50 is 0.745 µM.

For `CC(=O)Nc1ccc(SCC(=O)c2cc(C)n(Cc3cccs3)c2C)cc1`, the AC50 was 4.66 µM. For `O=C(NCCCN1CCOCC1)c1ccc(Sc2ccc(Br)cc2)c([N+](=O)[O-])c1` the value was < 0.16 µM; for `CC1=NN(c2ccccc2)C(=O)/C1=C\C=C\c1ccccc1`, 3.55 µM. `Cc1cc(N)n(-c2ccc(S(N)(=O)=O)cc2[N+](=O)[O-])n1`: the AC50 is > 19.5 µM (inactive).

Take `O=c1c2c3c(sc2nc(NCCO)n1Cc1ccco1)CCCCC3`: the concentration at half-maximal activity (AC50) is 2.01 µM.

As for `CC(NCC(O)COCCC12CC3CC(CC(C3)C1)C2)c1ccccc1` (stereo not given), the half-maximal activity concentration (AC50) is 3.32 µM.
